Common to all, as to assay type: cell-based
For assay [1], the system named is parental ASPC-1 cells harboring KRAS G12D. As to the kind of experiment: Growth suppression of parental ASPC-1 cells. As to the method: (§1) To identify mutations or regulatory mechanisms that would confer acquired resistance to KRAS^G12D inhibitor MTRX1133, ASPC-1 and PANC-1 cells harboring KRAS G12D were exposed to increasing concentrations of MTRX-1133 (up to 20 μM). […] Clones resistant to KRAS^G12D inhibitor were generated during the course of the treatment.

Assay [2] has as its system parental PANC-1 cells harboring KRAS G12D. In words: Growth suppression of parental PANC-1 cells. How it is done:
as §1

In assay [3] the test system is MTRX-1133 resistant PANC-1 cells. In words: Cell growth inhibition assay, MTRX-1133 resistant PANC-1. How it is done:
as §1
(§2) ADGN-123 nanoparticle corresponds to gRNA35A5 sgRNA/Cas9 mRNA (1/1 molar ratio) associated with ADGN peptide (ADGN-106-Hydro3 peptide or ADGN-108-R9) at molar ratio 20/1 (peptide/nucleic acid). ADGN-123 nanoparticles were evaluated on the three stable MTRX-1133 resistant PANC-1 clones and two ASPC-1 clones. PANC-1-C1, PANC-1-C2, PANC-1-C3, ASPC-1-C1 and ASPC-1-C2. Cells were cultured in 96-well plate format and treated with free mRNACas9-gRNA, or ADGN-123 (ADGN/mRNACas9-gRNA) complex (from 0.1-10 μM) on day 1. Cell proliferation was analyzed over a period of 5 days using CellTiter Glow kits on GlowMax (Promega) and cytotoxicity was analyzed at 72 hr after treatment using CellTiter Glow or MTT assays kits.

For assay [4], the system named is MTRX-1133 resistant ASPC-1 cells. In words: Cell growth inhibition assay, MTRX-1133 resistant ASPC-1. As to the method:
as §1, §2

One compound from patent US20260248963A1, “COMPOSITIONS FOR TREATING CANCER WITH KRAS MUTATIONS AND USES THEREOF” (AADIGEN, LLC, priority 2023, published 2026) can be followed below.

In general, IC50 refers to the concentration at which inhibition is half-maximal. A lower IC50 goes with inhibition by little substance. On to `C#Cc1c(F)ccc2cc(O)cc(-c3ncc4c(N5CC6CCC(C5)N6)nc(OC[C@@]56CCCN5C[C@H](F)C6)nc4c3F)c12` [MTRX-1133], for which the “Lowest concentration that suppressed the growth of parental cells” value in assay [1] and in assay [2] was 100 nM each time. Besides, the figures for the IC50 in assay [3] and in assay [4] were 4.75 ± 0.212 µM and 2.08 ± 0.203 µM, respectively.
